Measurements published in US9726663B2, “Method of identifying or evaluating synergistic combinations of actives and compositions containing the same” (The Procter & Gamble Company, priority 2012, dated 2017).

Experiments:
[1] = system: human, dermal fibroblasts (BJ cell line); test: Oxygen consumption rate (oxidative phosphorylation) of fibroblasts, XF Extracellular Flux Analyzer; format: cell-based; set-up: Average OCR value per treatment group: unit not given here
Experimental: (§1) With regard to the fibroblasts discussed above in FIGS. 5A, 5B, SC, 5D, 5E, 6, 7A, 7B, 7C, 7D, 7E and 8 frozen, human dermal fibroblasts were obtained from the BJ cell line commercially available from ATCC, Bethesda, Md. The fibroblasts were grown to 70-80% confluence in a fibroblast culture medium of Eagle's Minimum Essential Medium (“EMEM”) supplemented with 10% fetal bovine serum (“FBS”) and gentamicin/amphotericin B ×500 solution (EMEM and FBS are available from ATCC and gentamicin/amphotericin B ×500 solution is available from Invitrogen). […] Each well included 100 μL of the fibroblast medium described above. A test medium was made from Dulbecco's Modified Eagle Medium (available from Seahorse Bioscience), 25 mM Glucose and 1 mM pyruvate. The test medium was warmed to 37° C. and the pH adjusted to 7.4. The cells were grown and plated at 37° C. and 5% CO2 air. The fibroblast medium in the wells was replaced by the test medium 1 hour prior to taking measurements. Oxygen consumption rate and extracellular acidification rate may be detected using an XF Extracellular Flux Analyzer or equivalent. The device should be capable of non-lethally and simultaneously detecting metabolic indicators of the oxphos and glycolysis pathways in a controlled environment, as well as providing […]. The cells may be provided in a multi-well plate suitable for use with the instrument (e.g., 24-well or 96 well plate) and washed prior to testing. The cells may be washed by any suitable means known in the art (e.g., using a Seahorse Biosciences XF prep station). It may be desirable to use a suitable prep station such as an XF prep station available from Seahorse Biosciences). When washing the cells, it may be desirable to remove the medium from the wells and wash the cells three times with a suitable amount of test medium (e.g., 180 μL in a 96-well plate or 600 μL in a 24-well plate). After washing the cells, a suitable amount (e.g., 180 μL) of an appropriate test medium is placed in each well, and the cells are equilibrated at 37° C. in a CO2-free incubator for 1-1.5 hours prior to taking placing the plate in the instrument for testing. Following the equilibration period, load the plate containing the cells into the instrument and equilibrate according to manufacturer's instructions. The entire test is conducted at 37° C. In some embodiments, the instrument may be to provide a three minute mix cycle, a two minute wait cycle, and a 3 minute measurement cycle for keratinocytes and a two minute mix cycle, two minute wait cycle, and 3 minute measurement cycle for fibroblasts. The cycles should be repeated for at least 88 minutes. It is to be appreciated that the cycles and times may be modified according to cell type and experiment design, as desired. The following example illustrates how the method herein can be used to identify synergistic combinations of skin care actives. Hydrogen peroxide is a well known ROS, and is used in this example to illustrate the undesirable metabolic effects associated with exposure of a cell to an oxidative stressor. The hydrogen peroxide was prepared at 10X working concentration in the fibroblast test medium described above. The test agents are niacinamide (also known as vitamin B3) and tocoquinone both commercially available from Sigma. The test agents were each prepared at 10× the final working concentration in the fibroblast test medium described above to provide a test agent solution. The stressor solution and the test agent solutions were both warmed to 37° C. and pH adjusted to 7.4. The cells are frozen, human, dermal fibroblasts obtained from ATCC (BJ cell line). The cells were cultured and prepared according to the test method described above. The fibroblasts were plated in Gelatin-coated, 96-well plate. Each well contained approximately 4×10^4 cells and 180 μL of fibroblast test medium (i.e., Seahorse Biosciences DMEM, 25 mM glucose and 1 mM pyruvate) at 37° C. and pH 7.4. […]

[2] = system: human, dermal fibroblasts (BJ cell line); test: Extracellular acidification rate (glycolysis) of fibroblasts, XF Extracellular Flux Analyzer; format: cell-based
Experimental: as §1

[3] = rate number 1, before addition of stressor/test agents (basal)
[4] = rate number 2, before addition of stressor/test agents (basal)
[5] = rate number 3, before addition of stressor/test agents (basal, reference)
[6] = rate number 4, 1.5 mM hydrogen peroxide, 0.25 mM niacinamide, 0.025 mM tocoquinone
[7] = rate number 5, 1.5 mM hydrogen peroxide, 0.25 mM niacinamide, 0.025 mM tocoquinone
[8] = rate number 6, 1.5 mM hydrogen peroxide, 0.25 mM niacinamide, 0.025 mM tocoquinone
[9] = rate number 7, 1.5 mM hydrogen peroxide, 0.25 mM niacinamide, 0.025 mM tocoquinone
[10] = rate number 8, 1.5 mM hydrogen peroxide, 0.25 mM niacinamide, 0.025 mM tocoquinone
[11] = rate number 9, 1.5 mM hydrogen peroxide, 0.25 mM niacinamide, 0.025 mM tocoquinone
[12] = rate number 10, 1.5 mM hydrogen peroxide, 0.25 mM niacinamide, 0.025 mM tocoquinone
[13] = rate number 11, 1.5 mM hydrogen peroxide, 0.25 mM niacinamide, 0.025 mM tocoquinone
[14] = rate number 12, 1.5 mM hydrogen peroxide, 0.25 mM niacinamide, 0.025 mM tocoquinone
[15] = rate number 13, 1.5 mM hydrogen peroxide, 0.25 mM niacinamide, 0.025 mM tocoquinone
[16] = rate number 14, 1.5 mM hydrogen peroxide, 0.25 mM niacinamide, 0.025 mM tocoquinone
[17] = rate number 15, 1.5 mM hydrogen peroxide, 0.25 mM niacinamide, 0.025 mM tocoquinone
[18] = rate number 16, 1.5 mM hydrogen peroxide, 0.25 mM niacinamide, 0.025 mM tocoquinone
[19] = rate number 17, 1.5 mM hydrogen peroxide, 0.25 mM niacinamide, 0.025 mM tocoquinone
[20] = rate number 18, 1.5 mM hydrogen peroxide, 0.25 mM niacinamide, 0.025 mM tocoquinone

SMILES | Average OCR value per treatment group [1, 3] | Average OCR value per treatment group [1, 4] | Average OCR value per treatment group [1, 5] | Average OCR value per treatment group [1, 6] | Average OCR value per treatment group [1, 7] | Average OCR value per treatment group [1, 8] | Average OCR value per treatment group [1, 9] | Average OCR value per treatment group [1, 10] | Average OCR value per treatment group [1, 11] | Average OCR value per treatment group [1, 12] | Average OCR value per treatment group [1, 13] | Average OCR value per treatment group [1, 14] | Average OCR value per treatment group [1, 15] | Average OCR value per treatment group [1, 16] | Average OCR value per treatment group [1, 17] | Average OCR value per treatment group [1, 18] | Average OCR value per treatment group [1, 19] | Average OCR value per treatment group [1, 20] | Average ECAR value per treatment group [2, 3] | Average ECAR value per treatment group [2, 4] | other results
OO [hydrogen peroxide, reference compound] | 97.05 | 99.80 | 100 | −139.75 | −4.58 | −6.07 | −24.10 | −34.10 | −44.54 | −53.81 | −58.25 | −63.85 | −70.69 | −73.38 | −76.46 | −76.97 | −76.26 | −76.76 | 101.82 percentage of rate 3 | 100.66 percentage of rate 3 | effect on OCR (oxphos metabolism) ([1]; 1.5 mM H2O2 by itself): relatively sharp decrease in OCR followed by a less rapid increase; effect on extracellular acidification rate (glycolysis metabolism) ([2]; 1.5 mM hydrogen peroxide by itself): substantial decrease in extracellular acidification rate; Average ECAR value per treatment group [2, 5]: 100 percentage of rate 3; Average ECAR value per treatment group [2, 6]: 48.46 percentage of rate 3; Average ECAR value per treatment group [2, 7]: 29.55 percentage of rate 3; Average ECAR value per treatment group [2, 8]: 33.64 percentage of rate 3; Average ECAR value per treatment group [2, 9]: 37.41 percentage of rate 3; Average ECAR value per treatment group [2, 10]: 28.20 percentage of rate 3; Average ECAR value per treatment group [2, 11]: 17.74 percentage of rate 3; Average ECAR value per treatment group [2, 12]: 15.41 percentage of rate 3; Average ECAR value per treatment group [2, 13]: 14.87 percentage of rate 3; Average ECAR value per treatment group [2, 14]: 13.82 percentage of rate 3; Average ECAR value per treatment group [2, 15]: 13.32 percentage of rate 3; Average ECAR value per treatment group [2, 16]: 12.78 percentage of rate 3; Average ECAR value per treatment group [2, 17]: 11.82 percentage of rate 3; Average ECAR value per treatment group [2, 18]: 11.52 percentage of rate 3; Average ECAR value per treatment group [2, 19]: 11.36 percentage of rate 3; Average ECAR value per treatment group [2, 20]: 11.57 percentage of rate 3
NC(=O)c1cccnc1 [niacinamide] | 99.16 | 101.76 | 100 | −21.15 | 63.31 | 60.15 | 47.41 | 38.52 | 34.85 | 32.39 | 31.10 | 32.43 | 30.49 | 29.48 | 28.18 | 26.95 | 25.83 | 23.41 | 107.35 percentage of rate 3 | 99.41 percentage of rate 3 | effect on reduction in OCR caused by hydrogen peroxide ([1]; in combination with 1.5 mM H2O2, 0.25 mM niacinamide, 0.025 mM tocoquinone): appears to lessen the reduction in OCR caused by the hydrogen peroxide; effect on acidification rate (glycolysis metabolism) ([2]; 0.25 mM niacinamide added by itself, no hydrogen peroxide): does not significantly affect glycolysis metabolism; effect on glycolysis metabolism in combination with hydrogen peroxide ([2]; added in combination with 1.5 mM hydrogen peroxide): appears to lessen the detrimental effect of the hydrogen peroxide on glycolysis metabolism; Average ECAR value per treatment group [2, 5]: 100 percentage of rate 3; Average ECAR value per treatment group [2, 6]: 64.35 percentage of rate 3; Average ECAR value per treatment group [2, 7]: 33.18 percentage of rate 3; Average ECAR value per treatment group [2, 8]: 34.48 percentage of rate 3; Average ECAR value per treatment group [2, 9]: 42.19 percentage of rate 3; Average ECAR value per treatment group [2, 10]: 49.60 percentage of rate 3; Average ECAR value per treatment group [2, 11]: 55.87 percentage of rate 3; Average ECAR value per treatment group [2, 12]: 60.52 percentage of rate 3; Average ECAR value per treatment group [2, 13]: 62.89 percentage of rate 3; Average ECAR value per treatment group [2, 14]: 60.57 percentage of rate 3; Average ECAR value per treatment group [2, 15]: 57.46 percentage of rate 3; Average ECAR value per treatment group [2, 16]: 55.04 percentage of rate 3; Average ECAR value per treatment group [2, 17]: 52.85 percentage of rate 3; Average ECAR value per treatment group [2, 18]: 51.52 percentage of rate 3; Average ECAR value per treatment group [2, 19]: 49.85 percentage of rate 3; Average ECAR value per treatment group [2, 20]: 47.58 percentage of rate 3
